From US8889711B2, “Pyrazolopyridine derivatives as anticancer agent” (Pierre Fabre Medicament, priority 2009, dated 2014) come the findings set out here.

What is called pIC50 is the negative decadic logarithm of the IC50, by convention in mol/L. The low end stands for a large IC50, the high end for a small IC50.

pIC50: −log10 of the molar value.

Sequence of ALK kinase (Q9UM73 19-1620): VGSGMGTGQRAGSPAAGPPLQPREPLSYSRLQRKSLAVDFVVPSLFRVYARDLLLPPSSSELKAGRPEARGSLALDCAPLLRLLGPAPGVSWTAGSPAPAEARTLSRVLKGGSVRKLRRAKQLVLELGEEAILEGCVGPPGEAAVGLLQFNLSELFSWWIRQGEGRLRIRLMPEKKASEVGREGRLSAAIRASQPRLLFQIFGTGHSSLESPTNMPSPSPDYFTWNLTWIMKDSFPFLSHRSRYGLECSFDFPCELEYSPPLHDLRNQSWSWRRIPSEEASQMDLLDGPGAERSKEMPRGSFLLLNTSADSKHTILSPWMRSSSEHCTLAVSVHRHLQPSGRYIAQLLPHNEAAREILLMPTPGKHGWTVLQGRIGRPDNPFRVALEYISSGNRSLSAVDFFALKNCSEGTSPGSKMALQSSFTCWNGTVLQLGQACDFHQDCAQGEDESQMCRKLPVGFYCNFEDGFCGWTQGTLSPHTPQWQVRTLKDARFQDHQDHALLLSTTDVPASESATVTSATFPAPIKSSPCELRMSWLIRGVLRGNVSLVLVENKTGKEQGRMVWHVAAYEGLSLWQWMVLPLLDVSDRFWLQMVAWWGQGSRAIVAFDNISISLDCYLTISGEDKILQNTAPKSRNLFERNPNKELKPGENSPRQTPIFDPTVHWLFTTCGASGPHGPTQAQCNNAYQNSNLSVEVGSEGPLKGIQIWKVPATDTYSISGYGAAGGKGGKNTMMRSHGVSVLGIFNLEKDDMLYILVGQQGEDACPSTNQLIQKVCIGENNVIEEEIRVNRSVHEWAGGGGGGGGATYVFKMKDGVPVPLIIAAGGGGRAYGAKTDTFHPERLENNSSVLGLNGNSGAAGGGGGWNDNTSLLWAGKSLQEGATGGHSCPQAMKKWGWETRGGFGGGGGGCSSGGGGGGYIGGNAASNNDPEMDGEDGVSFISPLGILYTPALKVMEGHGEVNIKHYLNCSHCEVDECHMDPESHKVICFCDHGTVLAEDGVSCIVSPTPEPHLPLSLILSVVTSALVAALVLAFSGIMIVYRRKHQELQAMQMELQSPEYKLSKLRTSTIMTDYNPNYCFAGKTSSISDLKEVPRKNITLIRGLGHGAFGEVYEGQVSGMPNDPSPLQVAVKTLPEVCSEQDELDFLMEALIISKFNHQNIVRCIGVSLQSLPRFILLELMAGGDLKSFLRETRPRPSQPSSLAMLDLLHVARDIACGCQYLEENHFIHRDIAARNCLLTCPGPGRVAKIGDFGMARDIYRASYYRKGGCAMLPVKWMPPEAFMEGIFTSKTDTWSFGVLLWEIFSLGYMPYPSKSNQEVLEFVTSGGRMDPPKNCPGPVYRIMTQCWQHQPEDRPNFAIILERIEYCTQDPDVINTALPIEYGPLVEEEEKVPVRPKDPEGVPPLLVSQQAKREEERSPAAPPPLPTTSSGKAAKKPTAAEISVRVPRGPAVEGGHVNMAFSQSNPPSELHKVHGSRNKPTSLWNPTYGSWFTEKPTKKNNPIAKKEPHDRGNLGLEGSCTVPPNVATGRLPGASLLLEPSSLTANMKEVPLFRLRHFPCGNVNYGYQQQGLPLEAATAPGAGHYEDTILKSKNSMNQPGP

In one test the test system is karpas 299 cells. Briefly: Measurement of inhibition of cell proliferation (Karpas), ATPlite. In kind it is cell-based. The settings on record: 72 hours. Put shortly:
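Karpas 299 cells seeded at 300 000 cells/ml, treated on Day 1 and incubated at 37° C under 5% CO2 for 72 h. Viability measured on Day 4 by ATPlite luminescence of ATP from viable cells. IC50 derived by non-linear sigmoid dose-response regression with variable Hill slope.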
In general terms: In ATP-based viability assays light output follows the ATP content of the culture.
In turn, `N#Cc1c(-c2cccc(O)c2)nc2[nH]nc(-c3cccs3)c2c1-c1ccc(N2CCNCC2)cc1` [Compound 247] had a negative logarithm of the IC50 (pIC50) of 5.00 to 6.00.

The test is the same for the next values; noted with them: Homo sapiens, KARPAS-299, 72 h.
In turn, `N#Cc1c(-c2ccc(O)cc2F)nc2[nH]nc(-c3ccccc3)c2c1-c1ccc(N2CCNCC2)cc1` [Compound 206] gave a pIC50 of 6.00 to 7.00.

In the case of `Cc1n[nH]c2nc(-c3ccc(NS(C)(=O)=O)cc3F)c(C#N)c(-c3ccc(N4CCNCC4)cc3)c12` [Compound 208], the pIC50 is < 5.00.

In turn, `Cc1n[nH]c2nc(-c3ccc(O)cc3F)c(C#N)c(-c3ccc(N4CCNCC4)c([N+](=O)[O-])c3)c12` [Compound 209] had a pIC50 of 5.00 to 6.00.

With `CN(C)CCOc1ccc(-c2c(C#N)c(-c3ccc(O)cc3F)nc3[nH]nc(N)c23)cc1` [Compound 210], the negative-log IC50 (pIC50) was 5.00 to 6.00.

On to `N#Cc1c(-c2ccc(O)cc2F)nc2[nH]nc(N)c2c1-c1ccc(OCCCN2CCNCC2)cc1` [Compound 211], for which the negative logarithm of the IC50 (pIC50) was < 5.00.

Turning to `N#Cc1c(-c2c(F)ccc(F)c2F)nc2[nH]nc(N)c2c1-c1ccc(N2CCNCC2)cc1` [Compound 212], the negative logarithm of the IC50 (pIC50) is < 5.00.

On to `Cc1n[nH]c2nc(-c3ccc(O)cc3F)c(C#N)c(-c3ccc(OCCCN4CCNCC4)cc3)c12` [Compound 213], for which the negative-log IC50 (pIC50) was 5.00 to 6.00.

The compound `COC(=O)c1c(-c2ccc(O)cc2)nc2[nH]nc(C)c2c1-c1ccc(C)o1` [Compound 215] gave a pIC50 of 6.00 to 7.00.

`Cc1n[nH]c2nc(-c3cc(Cl)ccc3F)c(C#N)c(-c3ccc(N4CCNCC4)cc3)c12` [Compound 217] showed a pIC50 of 5.00 to 6.00.

Regarding `N#Cc1c(-c2ccc(O)cc2F)nc2[nH]nc(-c3ccc(F)cc3)c2c1-c1ccc(N2CCNCC2)cc1` [Compound 218], the pIC50 is 5.00 to 6.00.

`N#Cc1c(-c2ccccc2)nc2[nH]nc(-c3cccs3)c2c1-c1ccc(N2CCNCC2)cc1` [Compound 219]: the pIC50 is 5.00 to 6.00.

`N#Cc1c(-c2c(F)ccc(F)c2F)nc2[nH]nc(-c3cccs3)c2c1-c1ccc(N2CCNCC2)cc1` [Compound 221] gave a negative logarithm of the IC50 (pIC50) of 5.00 to 6.00.

`CNc1ccc(-c2nc3[nH]nc(C)c3c(-c3ccc(N4CCNCC4)cc3)c2C#N)c(F)c1` [Compound 222]: the pIC50 is < 5.00.

`CCOC(=O)c1c(-c2ccc(O)cc2)nc2[nH]nc(C)c2c1-c1ccc(C)o1` [Compound 223] gave a pIC50 of 6.00 to 7.00.

On to `Cc1n[nH]c2nc(-c3ccc(O)cc3F)c(C#N)c(-c3ccc(N4CCNCC4)c(N)c3)c12` [Compound 226], for which the pIC50 was 5.00 to 6.00.

As to `Cc1n[nH]c2nc(-c3c(F)ccc(Cl)c3F)c(C#N)c(-c3ccc(N4CCNCC4)cc3)c12` [Compound 228], the pIC50 was 5.00 to 6.00.

In turn, `CC(C)(C)c1n[nH]c2nc(-c3ccc(O)cc3F)c(C#N)c(-c3ccc(N4CCNCC4)cc3)c12` [Compound 230] showed a pIC50 of 5.00 to 6.00.

Compound `N#Cc1c(-c2cccc(O)c2)nc2[nH]nc(-c3cccs3)c2c1-c1ccc(N2CCNCC2)cc1` [Compound 231] gave a negative-log IC50 (pIC50) of 5.00 to 6.00.

With `N#Cc1c(-c2cc3cc[nH]c3cc2F)nc2[nH]nc(N)c2c1-c1ccc(N2CCNCC2)cc1` [Compound 233], the negative-log IC50 (pIC50) was < 5.00.

`Cc1n[nH]c2nc(-c3cc4cc[nH]c4cc3F)c(C#N)c(-c3ccc(N4CCNCC4)cc3)c12` [Compound 234] showed a pIC50 of 5.00 to 6.00.

As to `N#Cc1c(-c2ccc(O)cc2F)nc2[nH]nc(-c3ccc([N+](=O)[O-])cc3)c2c1-c1ccc(N2CCNCC2)cc1` [Compound 235], the pIC50 is 5.00 to 6.00.

Take `N#Cc1c(-c2ccc(O)cc2F)nc2[nH]nc(-c3ccc(-c4ccccc4)cc3)c2c1-c1ccc(N2CCNCC2)cc1` [Compound 236]: the pIC50 was 6.00 to 7.00.

Compound `Cc1n[nH]c2nc(-c3ccc(O)cc3F)c(S(C)(=O)=O)c(-c3ccc(N4CCNCC4)cc3)c12` [Compound 238] showed a negative logarithm of the IC50 (pIC50) of 5.00 to 6.00.

In turn, `Cc1n[nH]c2nc(-c3ccc(OC(=O)c4ccccc4)cc3F)c(C#N)c(-c3ccc(N4CCNCC4)cc3)c12` [Compound 239] gave a pIC50 of 6.00 to 7.00.

Another test has as its target ALK kinase (Homo sapiens, UniProt Q9UM73). The test is described as follows: Test to measure ALK kinase inhibition (GST-PLCγ1 substrate, anti-phosphotyrosine ELISA, luminescence). The format is biochemical. Particulars: ALK kinase 180 ng/ml, 250 μM ATP, 30 minutes at 30° C. Summed up:
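GST-PLCγ1 substrate-coated plate; ALK at 180 ng/ml in Tris pH 7.5 buffer with MgCl2, DTT, β-glycerophosphate, orthovanadate and 250 μM ATP, 30 min at 30 °C, inhibitor typically 30 μM to 10 nM. Phosphotyrosine detected with HRP anti-phosphotyrosine antibody, luminescence read-out.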
In general terms: In an ELISA, binding on a coated surface is turned into a signal by an enzyme label.
`N#Cc1c(-c2ccc(O)cc2F)nc2[nH]nc(-c3ccccc3)c2c1-c1ccc(N2CCNCC2)cc1` [Compound 206]: the pIC50 was > 7.00.

In turn, `Cc1n[nH]c2nc(-c3ccc(NS(C)(=O)=O)cc3F)c(C#N)c(-c3ccc(N4CCNCC4)cc3)c12` [Compound 208] had a negative logarithm of the IC50 (pIC50) of 5.00 to 6.00.

`Cc1n[nH]c2nc(-c3ccc(O)cc3F)c(C#N)c(-c3ccc(N4CCNCC4)c([N+](=O)[O-])c3)c12` [Compound 209]: the negative-log IC50 (pIC50) is 6.00 to 7.00.

As to `CN(C)CCOc1ccc(-c2c(C#N)c(-c3ccc(O)cc3F)nc3[nH]nc(N)c23)cc1` [Compound 210], the pIC50 is 6.00 to 7.00.

Take `N#Cc1c(-c2ccc(O)cc2F)nc2[nH]nc(N)c2c1-c1ccc(OCCCN2CCNCC2)cc1` [Compound 211]: the pIC50 is 6.00 to 7.00.

With `N#Cc1c(-c2c(F)ccc(F)c2F)nc2[nH]nc(N)c2c1-c1ccc(N2CCNCC2)cc1` [Compound 212], the negative-log IC50 (pIC50) was 5.00 to 6.00.

With `Cc1n[nH]c2nc(-c3ccc(O)cc3F)c(C#N)c(-c3ccc(OCCCN4CCNCC4)cc3)c12` [Compound 213], the pIC50 was > 7.00.

Consider `COC(=O)c1c(-c2ccc(O)cc2)nc2[nH]nc(C)c2c1-c1ccc(C)o1` [Compound 215], for which the pIC50 was > 7.00.

Take `Cc1n[nH]c2nc(-c3cc(Cl)ccc3F)c(C#N)c(-c3ccc(N4CCNCC4)cc3)c12` [Compound 217]: the negative-log IC50 (pIC50) was 5.00 to 6.00.

Take `N#Cc1c(-c2ccc(O)cc2F)nc2[nH]nc(-c3ccc(F)cc3)c2c1-c1ccc(N2CCNCC2)cc1` [Compound 218]: the negative logarithm of the IC50 (pIC50) is > 7.00.

On to `N#Cc1c(-c2ccccc2)nc2[nH]nc(-c3cccs3)c2c1-c1ccc(N2CCNCC2)cc1` [Compound 219], for which the negative-log IC50 (pIC50) is 5.00 to 6.00.

Take `N#Cc1c(-c2c(F)ccc(F)c2F)nc2[nH]nc(-c3cccs3)c2c1-c1ccc(N2CCNCC2)cc1` [Compound 221]: the pIC50 was 6.00 to 7.00.

Consider `CNc1ccc(-c2nc3[nH]nc(C)c3c(-c3ccc(N4CCNCC4)cc3)c2C#N)c(F)c1` [Compound 222], for which the pIC50 is 5.00 to 6.00.

Consider `CCOC(=O)c1c(-c2ccc(O)cc2)nc2[nH]nc(C)c2c1-c1ccc(C)o1` [Compound 223], for which the pIC50 was > 7.00.

Turning to `Cc1n[nH]c2nc(-c3ccc(O)cc3F)c(C#N)c(-c3ccc(N4CCNCC4)c(N)c3)c12` [Compound 226], the pIC50 is 6.00 to 7.00.

`Cc1n[nH]c2nc(-c3c(F)ccc(Cl)c3F)c(C#N)c(-c3ccc(N4CCNCC4)cc3)c12` [Compound 228] showed a negative logarithm of the IC50 (pIC50) of 6.00 to 7.00.

Take `CC(C)(C)c1n[nH]c2nc(-c3ccc(O)cc3F)c(C#N)c(-c3ccc(N4CCNCC4)cc3)c12` [Compound 230]: the pIC50 was 6.00 to 7.00.

For the compound `N#Cc1c(-c2cccc(O)c2)nc2[nH]nc(-c3cccs3)c2c1-c1ccc(N2CCNCC2)cc1` [Compound 231], the pIC50 was 5.00 to 6.00.

`N#Cc1c(-c2cc3cc[nH]c3cc2F)nc2[nH]nc(N)c2c1-c1ccc(N2CCNCC2)cc1` [Compound 233] had a pIC50 of 6.00 to 7.00.

The compound `Cc1n[nH]c2nc(-c3cc4cc[nH]c4cc3F)c(C#N)c(-c3ccc(N4CCNCC4)cc3)c12` [Compound 234] gave a negative logarithm of the IC50 (pIC50) of 6.00 to 7.00.

`N#Cc1c(-c2ccc(O)cc2F)nc2[nH]nc(-c3ccc([N+](=O)[O-])cc3)c2c1-c1ccc(N2CCNCC2)cc1` [Compound 235] showed a pIC50 of 6.00 to 7.00.

With `N#Cc1c(-c2ccc(O)cc2F)nc2[nH]nc(-c3ccc(-c4ccccc4)cc3)c2c1-c1ccc(N2CCNCC2)cc1` [Compound 236], the negative logarithm of the IC50 (pIC50) was > 7.00.

`Cc1n[nH]c2nc(-c3ccc(O)cc3F)c(S(C)(=O)=O)c(-c3ccc(N4CCNCC4)cc3)c12` [Compound 238] had a pIC50 of 6.00 to 7.00.

Compound `Cc1n[nH]c2nc(-c3ccc(OC(=O)c4ccccc4)cc3F)c(C#N)c(-c3ccc(N4CCNCC4)cc3)c12` [Compound 239] had a pIC50 of 6.00 to 7.00.

`N#Cc1c(-c2cccc(O)c2)nc2[nH]nc(-c3cccs3)c2c1-c1ccc(N2CCNCC2)cc1` [Compound 247]: the pIC50 was 6.00 to 7.00.
